Converted amounts (≈) assume the structure as drawn.
Molecular target: intestinal α-glucosidase
Test: sucrose hydrolysis, glucose oxidase-peroxidase, absorbance […] nm
Assay type: biochemical
Settings: phosphate buffer pH 7.5, 20 min pre-incubation at 37 °C

Compound: C[C@H]1O[C@H](O[C@H]2[C@H](O)[C@@H](O)[C@@H](O[C@H]3[C@H](O)[C@@H](O)C(O)O[C@@H]3CO)O[C@@H]2CO)[C@H](O)[C@@H](O)[C@@H]1N[C@H]1C=C(CO)[C@@H](O)[C@H](O)[C@H]1O (stereo partly shown) [acarbose]
- IC50: 52.5 ± 2.67 µg/mL (≈ 81.3 µM)

Source: publication PMC10492212 (Journal of Ayurveda and Integrative Medicine, 2023)
